# Legend:
# A549 cells = test: Mitochondrion-nucleolus migration on CCCP treatment, A549 cells; format: cell-based, human
# Procedure: (§1) FIG. 15 Live A549 cells (A) and live A549 co-cultured with COS 7 cells, live HeLa co-cultured with COS7 cells (B) were pre-stained with 2 μM IVP-02 for 30 min, and treated with 20 μM CCCP for 5 min. Then CCCP was removed away and fresh culture medium was added for another 5 min. λex=488 nm, λem=500-650 nm. Scale bar=20 μm.
# FIG. 18 Live A549 cells were pre-stained with 2 μM IVP-04, 22, 42, 06, 62 for 30 min, and treated with 20 μM CCCP for 5 min. Then CCCP was removed away and fresh culture medium was added for another 5 min, respectively. λex=488 nm, λem=500-650 nm. Scale bar=20 μm.
# Monitoring cell viability is a highly valuable task for the fundamental researches in biology, pathology, and medicine. Then we investigated whether IVP-02 could monitor cell viability. Δψm is a very important indicator to characterize cell viability. With the loss of cell viability, Δψm would decrease, while with the recovery of cell viability, Δψm would also recover to the normal level. […] Carbonyl cyanide m-chlorophenyl hydrazone (CCCP) is a type of protonophore and can cause rapid acidification of mitochondria by collapsing Δψm. Cancer cells A549 were pre-stained with IVP-02 for 30 min. In FIG. 15A, in the beginning, IVP-02 stained mitochondria clearly. […] Hydrogen peroxide (H2O2) can inhibit the oxidation respiratory chain that would cause the loss of cell viability. Then live A549 and HeLa cells were pre-stained with IVP-02, and treated with 10 mM H2O2.
# In addition to IVP-02, we further investigated whether other IVP molecules could monitor the viability of cancer cells through mitochondrion-nucleolus migration was investigated. A549 cells were pre-stained with IVP-04, 22, 42, 06, and 62, respectively, and then CCCP was added.
# [1] = Quantum yield in the solid state; format: physicochemical
# Description: IVPI-2 is able to stain mitochondria in healthy live cancer cells. However, when Δψm decreases, IVPI-2 migrates into nucleolus. Since IVPI-2 is target-changeable according to the change of mitochondrial physiology, the chemical structure of IVPI-2 was modified in order to enhance the mitochondria to nucleolus migration. Iodide ion is a well-known effective fluorescent quencher due to its heavy-atom effect. The quantum yield of IVP-02 in the solid state is 4.3%, which is about 3 times than that of IVPI-02 (1.3%). An Exemplary synthetic route to certain embodiments of the compounds described herein is depicted in Scheme 1.
# [2] = system: A549 co-cultured with COS7 cells, HeLa co-cultured with COS7 cells; test: CCCP treatment of cancer cells co-cultured with normal cells; format: cell-based; settings: A549 or HeLa with COS7, 2 μM, 20 μM CCCP added then removed
# Procedure: as §1
# To test whether IVP-02 could selectively stain cancer cells and monitor their viability, cancer cells and normal cells were co-cultured and stained with IVP-02. […] After CCCP was removed, the fluorescence in nucleolus disappeared, while the fluorescence in mitochondria recovered gradually. […] The same experiments were also carried out in HeLa cells co-cultured with COS7 cells shown in FIG. 15B and similar phenomena were observed.
# [3] = system: cancer cells (A549 and HeLa) co-cultured with normal cells (COS7 and HLF); test: CLSM imaging of cancer cells co-cultured with normal cells; format: cell-based; settings: 30 min
# Procedure: FIG. 5 CLSM images of live cancer cells (A549 and HeLa) co-cultured with normal cells (COS7 and HLF) (A), and the images of A549 and HLF cells seeded on different cover glasses (Scale bar=20 μm) (B) stained with 2 μM IVP-02 for 30 min (Scale bar=50 μm), respectively. λex=488 nm, λem=500-650 nm.
# FIG. 10 CLSM images of live cancer cells (A549) co-cultured with normal cells (COS7) (A), and the images of A549 and HLF cells seeded on different cover glasses Scale bar=20 μm (B) stained with 2 μM IVP-02, 04, 06, 22, 42, and 62 for 30 min Scale bar=50 μm, respectively. (The first column in B is the same as FIG. 3B) λex=488 nm, λem=500-650 nm.
# FIG. 11 CLSM images of live cancer cells (HeLa) co-cultured with normal cells (COS7), stained with 2 μM IVP-02, 04, 06, 22, 42, and 62 for 30 min, respectively. λex=488 nm, λem=500-650 nm. Scale bar=20 μm.
# FIG. 12 CLSM images of live cancer cells (A549) co-cultured with normal cells (HLF), stained with 2 μM IVP-02, 04, 06, 22, 42, and 62 for 30 min, respectively. λex=488 nm, λem=500-650 nm. Scale bar=20 μm.
# The bioimaging properties of IVP-02 in live cells were investigated by confocal laser scanning microscopy (CLSM). Cancer cells (A549 and HeLa) and normal cells (COS7 and HLF) were stained with IVP-02, respectively. […] So IVP-02 holds the high potential to differentiate cancer and normal cells. To verify this speculation, cancer and normal cells were co-cultured and stained with IVP-02. […] To precisely confirm the selectivity of IVP-02 to cancer cells, cancer cells A549 and normal cells HLF (A549 and HLF are both human lung cells) were seeded on different cover glasses, respectively. Then the two cover glasses were put in the same dish and stained with IVP-02 at the same time.
# Cancer cells A549 co-cultured with normal cells COS7 were stained with these molecules, respectively. […] Then HeLa cells co-cultured with COS7 cells (FIG. 11), and A549 cells co-cultured with HLF cells (FIG. 12) were also stained with these molecules, the results were similar with that in A549 cells co-cultured with COS7 cells. In addition to co-culturing, A549 cells and HLF cells were also seeded on different cover glasses and stained with these molecules. […] Based on the imaging results above, it can be concluded that the selectivity of these IVP molecules to cancer cells is also based on the length of alkyl chain at pyridinium salt side. Lengthening the alkyl chain at the pyridinium salt side will eliminate the selectivity to cancer cells.
smiles,measurement,setting,value
CC[n+]1ccc(/C=C/c2c[nH]c3ccccc23)cc1 [IVP-02],migration back to mitochondria after removal of CCCP,"A549 cells; A549, CCCP removed, fresh medium 5 min",migrated back to mitochondria
same,migration from mitochondria to nucleolus after addition of CCCP,"A549 cells; A549, pre-stained 2 μM 30 min, 20 μM CCCP 5 min",released from mitochondria and migrated to nucleolus
same,quantum yield,[1],4.3%
same,quantum yield relative to IVPI-02,[1],about 3 times
same,selective staining and viability monitoring in co-cultured cells,[2],could selectively stain cancer cells and monitor their viability through mitochondrion-nucleolus migration
same,staining of co-cultured cancer and normal cells,"[3]; A549 and HeLa co-cultured with COS7 and HLF, 2 μM",only cancer cells (A549 and HeLa) were highly illuminated
same,staining of co-cultured cancer and normal cells,"[3]; A549 co-cultured with COS7, 2 μM",only stain A549 cells

# Reference: patent US11965100B2, “Aggregation-induced emission luminogens useful for cancer cell discrimination and monitoring” (The Hong Kong University of Science and Technology, priority 2020, dated 2024)
